ChEMBL document CHEMBL4732175, “Design and Characterization of a Pyridone-Containing EZH2 Inhibitor Phosphate Prodrug” (J Med Chem, 2021)
≈ marks a conversion by molar mass, not a printed value. Blank lines part the entries; values can stand above or below the compound they belong to. Calls of active or inactive are those of the source. The calls are words filed in the database; no cut-off is given here.

Columns and labels:
[1] = Drug metabolism in mouse plasma assessed as 5,8-dichloro-2-((4,6-dimethyl-2-oxo-1,2-dihydropyridin-3-yl)methyl)-7-(3,5-dimethylisoxazol-4-yl)-3,4-dihydroisoquinolin-1(2H)-one formation at 30 to 120 mg/kg, po BID; assay type: ADME, organism-based; conditions: in vivo, dose 30-120 mg/kg
[2] = Drug level in rat plasma at 2000 mg/kg/day, po; assay type: ADME, organism-based; conditions: in vivo
[3] = Solubility in 0.5% MC formulation contained 1 equivalent of NaOH; assay type: physicochemical; conditions: 0.5% MC formulation containing 1 equivalent of NaOH
KARPAS-422 [4] = assay: Antitumor activity against human KARPAS-422 cells xenografted in mouse assessed as inhibition of tumor growth inhibition at 60 mg/kg/day dosed via MC formulation for 30 days; assay type: functional; conditions: KARPAS-422, 720 h, time 30 day, read-out: TGI
KARPAS-422 [5] = assay: Antitumor activity against human KARPAS-422 cells xenografted in mouse assessed as inhibition of tumor growth inhibition at 60 to 240 mg/kg/day dosed via MC formulation for 30 days; assay type: functional, organism-based; conditions: dose 60-240 mg/kg/day, time 30.0 day
[6] = Drug metabolism in rat plasma assessed as 5,8-dichloro-2-((4,6-dimethyl-2-oxo-1,2-dihydropyridin-3-yl)methyl)-7-(3,5-dimethylisoxazol-4-yl)-3,4-dihydroisoquinolin-1(2H)-one formation at 2000 mg/kg/day, po; assay type: ADME, organism-based; conditions: in vivo
[7] = Chemical stability in simulated intestinal fluid at pH 6.8; assay type: physicochemical
KARPAS-422 [8] = assay: Antitumor activity against human KARPAS-422 cells xenografted in mouse assessed as inhibition of tumor growth inhibition at 120 mg/kg/day dosed via MC formulation for 30 days; assay type: functional; conditions: KARPAS-422, 720 h, time 30 day, read-out: TGI
KARPAS-422 [9] = assay: Antitumor activity against human KARPAS-422 cells xenografted in mouse assessed as inhibition of tumor growth inhibition at 240 mg/kg/day dosed via SEDDS formulation for 30 days; assay type: functional, organism-based; conditions: time 30.0 day
KARPAS-422 [10] = assay: Antitumor activity against human KARPAS-422 cells xenografted in mouse assessed as inhibition of tumor growth inhibition at 147 mg/kg/day dosed via MC formulation for 30 days and measured up to 40 days after dosing cessation; assay type: functional, organism-based; conditions: time 30.0 day
[11] = Chemical stability in simulated gastric fluid at pH 1.2; assay type: physicochemical
[12] = Drug level in mouse plasma at 30 to 120 mg/kg, po BID; assay type: ADME, organism-based; conditions: in vivo, dose 30-120 mg/kg
KARPAS-422 [13] = assay: Antitumor activity against human KARPAS-422 cells xenografted in mouse assessed as inhibition of tumor growth inhibition at 240 mg/kg/day dosed via MC formulation for 30 days; assay type: functional; conditions: KARPAS-422, 720 h, time 30 day, read-out: TGI
[14] = Drug level in mouse plasma at 120 mg/kg, po BID dosed using SEDDS formulation; assay type: ADME, organism-based; conditions: in vivo
[15] = Permeability in MDCK cells; assay type: ADME, cell-based, Canis lupus familiaris; conditions: dog, read-out: permeability
KARPAS-422 [16] = assay: Inhibition of cell proliferation in human KARPAS-422 cells; assay type: functional, cell-based
[17] = Apparent solubility of the compound; assay type: physicochemical
KARPAS-422 [18] = assay: Antitumor activity against human KARPAS-422 cells xenografted in mouse assessed as inhibition of tumor growth inhibition at 240 mg/kg/day dosed via SEDDS formulation for 30 days; conditions: KARPAS-422, 720 h, read-out: TGI
[19] = Intrinsic clearance in human liver microsomes; assay type: ADME, Microsome; conditions: read-out: CLH
[20] = target: T1, Histone-lysine N-methyltransferase EZH2 (Homo sapiens, UniProt Q15910); assay: Inhibition of wild type EZH2 (unknown origin)
T1 sequence (Q15910 whole entry): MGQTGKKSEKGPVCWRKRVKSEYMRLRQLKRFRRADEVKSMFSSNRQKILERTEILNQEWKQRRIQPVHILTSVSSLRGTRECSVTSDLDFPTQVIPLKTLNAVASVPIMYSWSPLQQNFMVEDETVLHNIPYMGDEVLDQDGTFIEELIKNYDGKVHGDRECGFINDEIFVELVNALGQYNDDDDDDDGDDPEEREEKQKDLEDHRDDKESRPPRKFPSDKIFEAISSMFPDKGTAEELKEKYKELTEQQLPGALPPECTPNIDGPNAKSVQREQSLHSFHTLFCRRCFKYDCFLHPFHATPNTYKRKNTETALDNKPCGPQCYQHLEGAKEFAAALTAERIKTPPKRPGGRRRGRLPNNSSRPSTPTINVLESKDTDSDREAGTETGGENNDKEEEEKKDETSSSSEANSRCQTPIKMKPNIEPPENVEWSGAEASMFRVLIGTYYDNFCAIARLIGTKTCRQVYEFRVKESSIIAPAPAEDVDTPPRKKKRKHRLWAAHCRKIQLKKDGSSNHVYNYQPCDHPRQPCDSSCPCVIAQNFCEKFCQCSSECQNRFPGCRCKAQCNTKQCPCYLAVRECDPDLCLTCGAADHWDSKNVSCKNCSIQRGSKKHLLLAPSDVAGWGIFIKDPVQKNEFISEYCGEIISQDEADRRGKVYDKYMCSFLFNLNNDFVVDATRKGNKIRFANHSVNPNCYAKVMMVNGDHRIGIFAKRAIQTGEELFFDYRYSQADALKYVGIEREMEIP

[21] = Distribution coefficient, log D of compound; assay type: physicochemical; conditions: octanol/water
[22] = target: T1, Histone-lysine N-methyltransferase EZH2; assay: Inhibition of wild type EZH2 in human KARPAS-422 cells assessed as effect on H3K27Me3 levels; assay type: cell-based
[23] = target: Histone-lysine N-methyltransferase EZH2 (Homo sapiens, UniProt Q15910, Y641N); assay: Inhibition of wild type EZH2 Y641N mutant (unknown origin)
Histone-lysine N-methyltransferase EZH2 (Homo sapiens, UniProt Q15910, Y641N), sequence (Q15910 whole entry Y641N): as the sequence (Q15910 whole entry) above, with Y641N counted along it

[24] = Thermodynamic solubility in 0.5% MC/0.1% polysorbate 80 aqueous vehicle; assay type: physicochemical; conditions: read-out: Therm_solubility

Drug metabolism [1]: Dose-dependent effect
Drug uptake [2]: Not Active
solubility [3]: 21600 µM
Drug metabolism [6]: Metabolite_Detected
Cp [12]: < 1 ng/mL
Structure (SMILES): Cc1cc(C)n(COP(=O)(O)O)c(=O)c1CN1CCc2c(Br)cc(-c3c(C)nnn3C)c(Cl)c2C1=O
inhibition in vivo at 60 mg/kg/day (KARPAS-422 [4]): 37%
TGI (KARPAS-422 [5]): Dose-dependent effect
Stabilty [7]: 8 h
inhibition in vivo at 120 mg/kg/day (KARPAS-422 [8]): 59%
TGI (KARPAS-422 [9]): Active
TGI (KARPAS-422 [10]): Active
Stabilty [11]: 8 h
inhibition in vivo at 240 mg/kg/day (KARPAS-422 [13]): 121%

Drug uptake [14]: Active
Papp [15]: 9 ×10⁻⁶ cm/s
IC50 (KARPAS-422 [16]): 36 nM
solubility [17]: 338 µM (≈ 166 µg/mL)
microsomal CLint [19]: 27.8 µL/min/mg
Ki [20]: 2 nM
logD [21]: 2.4
IC50 [22]: 30 nM
Ki [23]: 7 nM
solubility thermodynamic [24]: 41 µM (≈ 20.1 µg/mL)
Structure (SMILES): Cc1cc(C)c(CN2CCc3c(Br)cc(-c4c(C)nnn4C)c(Cl)c3C2=O)c(=O)[nH]1
inhibition in vivo at 240 mg/kg/day (KARPAS-422 [18]): 98%

solubility [17]: 140 µM (≈ 62.5 µg/mL)
Ki [20]: 1 nM
logD [21]: 3.1
Structure (SMILES): Cc1cc(C)c(CN2CCc3c(Cl)cc(-c4c(C)noc4C)c(Cl)c3C2=O)c(=O)[nH]1
